PubChem BioAssay (NCI)
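Growth conditions: 96-well plates. Treatment: test compound, 48 hours, 5 concentrations. Analysis: linear interpolation between bracketing concentrations; unreached endpoints set to highest concentration. TGI: concentration producing complete growth inhibition.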

How the values were obtained:
Assay in all cases: NCI-60 cell line screen, 48 h
SR leukemia = test system: SR leukemia
MCF7 breast = test system: MCF7 breast
SNB-75 CNS = test system: SNB-75 CNS
TK-10 renal = test system: TK-10 renal
UACC-257 melanoma = test system: UACC-257 melanoma
LOX IMVI melanoma = test system: LOX IMVI melanoma
T-47D breast = test system: T-47D breast
HCT-15 colon = test system: HCT-15 colon
SF-268 CNS = test system: SF-268 CNS
SN12C renal = test system: SN12C renal
NCI-H460 lung = test system: NCI-H460 lung
M14 melanoma = test system: M14 melanoma
COLO 205 colon = test system: COLO 205 colon
PC-3 prostate = test system: PC-3 prostate
CAKI-1 renal = test system: CAKI-1 renal
NCI-H23 lung = test system: NCI-H23 lung
786-0 renal = test system: 786-0 renal
A549 NSCLC = test system: A549 NSCLC
MALME-3M melanoma = test system: MALME-3M melanoma
SNB-19 CNS = test system: SNB-19 CNS
NCI-H226 lung = test system: NCI-H226 lung
HT29 colon = test system: HT29 colon
OVCAR-5 ovarian = test system: OVCAR-5 ovarian
HOP-92 NSCLC = test system: HOP-92 NSCLC
UACC-62 melanoma = test system: UACC-62 melanoma
IGROV1 ovarian = test system: IGROV1 ovarian
RPMI-8226 leukemia = test system: RPMI-8226 leukemia
NCI-H522 lung = test system: NCI-H522 lung
OVCAR-8 ovarian = test system: OVCAR-8 ovarian
HL-60(TB) leukemia = test system: HL-60(TB) leukemia
HOP-62 NSCLC = test system: HOP-62 NSCLC
CCRF-CEM leukemia = test system: CCRF-CEM leukemia
EKVX NSCLC = test system: EKVX NSCLC
NCI/ADR-RES ovarian = test system: NCI/ADR-RES ovarian
UO-31 renal = test system: UO-31 renal
HCC-2998 colon = test system: HCC-2998 colon
MDA-MB-231 breast = test system: MDA-MB-231 breast
SK-MEL-28 melanoma = test system: SK-MEL-28 melanoma
KM12 colon = test system: KM12 colon
DU-145 prostate = test system: DU-145 prostate
U251 CNS = test system: U251 CNS
SF-295 CNS = test system: SF-295 CNS
HCT-116 colon = test system: HCT-116 colon
SK-MEL-5 melanoma = test system: SK-MEL-5 melanoma
SK-MEL-2 melanoma = test system: SK-MEL-2 melanoma
HS 578T breast = test system: HS 578T breast
MDA-MB-435 = test system: MDA-MB-435
ACHN renal = test system: ACHN renal
OVCAR-4 ovarian = test system: OVCAR-4 ovarian
MDA-N = test system: MDA-N
SK-OV-3 ovarian = test system: SK-OV-3 ovarian
K-562 leukemia = test system: K-562 leukemia
A498 renal = test system: A498 renal
MOLT-4 leukemia = test system: MOLT-4 leukemia
RXF 393 renal = test system: RXF 393 renal
SF-539 CNS = test system: SF-539 CNS

Structure (SMILES): C#CC(O)/C=C/C(O)CCCC(O)CC#CC(O)C#CC(O)CCCC(O)/C=C/CCCCCC(=O)CCCCCCCCCCCCCC(O)C(O)C#CC(=O)O (configuration not stated)
- TGI (SR leukemia): 26.1 µM
- TGI (MCF7 breast): 38.7 µM
- TGI (SNB-75 CNS): 26 µM
- TGI (TK-10 renal): > 50 µM
- TGI (UACC-257 melanoma): > 50 µM
- TGI (LOX IMVI melanoma): 24.5 µM
- TGI (T-47D breast): 35 µM
- TGI (HCT-15 colon): > 50 µM
- TGI (SF-268 CNS): > 50 µM
- TGI (SN12C renal): > 50 µM
- TGI (NCI-H460 lung): > 50 µM
- TGI (M14 melanoma): > 50 µM
- TGI (COLO 205 colon): > 50 µM
- TGI (PC-3 prostate): > 50 µM
- TGI (CAKI-1 renal): > 50 µM
- TGI (NCI-H23 lung): > 50 µM
- TGI (786-0 renal): > 50 µM
- TGI (A549 NSCLC): > 50 µM
- TGI (MALME-3M melanoma): > 50 µM
- TGI (SNB-19 CNS): > 50 µM
- TGI (NCI-H226 lung): > 50 µM
- TGI (HT29 colon): > 50 µM
- TGI (OVCAR-5 ovarian): > 50 µM
- TGI (HOP-92 NSCLC): 27.1 µM
- TGI (UACC-62 melanoma): > 50 µM
- TGI (IGROV1 ovarian): 36.6 µM
- TGI (RPMI-8226 leukemia): > 50 µM
- TGI (NCI-H522 lung): 18.3 µM
- TGI (OVCAR-8 ovarian): > 50 µM
- TGI (HL-60(TB) leukemia): > 50 µM
- TGI (HOP-62 NSCLC): > 50 µM
- TGI (CCRF-CEM leukemia): 34.2 µM
- TGI (EKVX NSCLC): > 50 µM
- TGI (NCI/ADR-RES ovarian): > 50 µM
- TGI (UO-31 renal): > 50 µM
- TGI (HCC-2998 colon): > 50 µM
- TGI (MDA-MB-231 breast): 24.6 µM
- TGI (SK-MEL-28 melanoma): 25 µM
- TGI (KM12 colon): > 50 µM
- TGI (DU-145 prostate): > 50 µM
- TGI (U251 CNS): > 50 µM
- TGI (SF-295 CNS): > 50 µM
- TGI (HCT-116 colon): > 50 µM
- TGI (SK-MEL-5 melanoma): > 50 µM
- TGI (SK-MEL-2 melanoma): 47.3 µM
- TGI (HS 578T breast): 33.3 µM
- TGI (MDA-MB-435): > 50 µM
- TGI (ACHN renal): > 50 µM
- TGI (OVCAR-4 ovarian): 17.9 µM
- TGI (MDA-N): > 50 µM
- TGI (SK-OV-3 ovarian): > 50 µM
- TGI (K-562 leukemia): > 50 µM
- TGI (A498 renal): > 50 µM
- TGI (MOLT-4 leukemia): 26.6 µM

Structure (SMILES): N#CC1=C(N)OC(c2cccc([N+](=O)[O-])c2)C1(C#N)C#N (configuration not stated)
- TGI (MCF7 breast): 48.5 µM
- TGI (SNB-75 CNS): 24.7 µM
- TGI (TK-10 renal): 33.8 µM
- TGI (UACC-257 melanoma): 31.3 µM
- TGI (LOX IMVI melanoma): 28.4 µM
- TGI (T-47D breast): 45.1 µM
- TGI (HCT-15 colon): 34.3 µM
- TGI (SF-268 CNS): 87 µM
- TGI (SN12C renal): > 100 µM
- TGI (M14 melanoma): 63.6 µM
- TGI (COLO 205 colon): 30.7 µM
- TGI (PC-3 prostate): 51.4 µM
- TGI (CAKI-1 renal): 26.6 µM
- TGI (NCI-H23 lung): 39.3 µM
- TGI (786-0 renal): 28.1 µM
- TGI (A549 NSCLC): 99.6 µM
- TGI (MALME-3M melanoma): 49.3 µM
- TGI (SNB-19 CNS): 42.5 µM
- TGI (RXF 393 renal): 43.3 µM
- TGI (NCI-H226 lung): 94.3 µM
- TGI (HT29 colon): 37.2 µM
- TGI (OVCAR-5 ovarian): 42.7 µM
- TGI (HOP-92 NSCLC): 32.3 µM
- TGI (SF-539 CNS): 42.5 µM
- TGI (UACC-62 melanoma): 81.6 µM
- TGI (IGROV1 ovarian): 35.4 µM
- TGI (RPMI-8226 leukemia): 47 µM
- TGI (NCI-H522 lung): 28.8 µM
- TGI (OVCAR-8 ovarian): 92.8 µM
- TGI (HL-60(TB) leukemia): > 100 µM
- TGI (HOP-62 NSCLC): 57 µM
- TGI (EKVX NSCLC): 64.6 µM
- TGI (NCI/ADR-RES ovarian): > 100 µM
- TGI (UO-31 renal): 32.8 µM
- TGI (HCC-2998 colon): 35.2 µM
- TGI (DU-145 prostate): 31.2 µM
- TGI (U251 CNS): > 100 µM
- TGI (SF-295 CNS): 73.2 µM
- TGI (HCT-116 colon): 28.5 µM
- TGI (SK-MEL-5 melanoma): 31.8 µM
- TGI (SK-MEL-2 melanoma): 40.4 µM
- TGI (HS 578T breast): > 100 µM
- TGI (MDA-MB-435): 59.2 µM
- TGI (ACHN renal): 33.2 µM
- TGI (MDA-N): 62.6 µM
- TGI (SK-OV-3 ovarian): > 100 µM
- TGI (K-562 leukemia): > 100 µM
- TGI (A498 renal): 36.7 µM
